Test results as given in paper PMC5234788 (PLoS ONE, 2017).
Where “and” joins values, the source holds several entries; their conditions need not be identical. Identical values can stand only once.

Experiments:
[1] = test system: T1, Dopamine, D2s (h); test: Radio-ligand binding assay, Dopamine D2s; set-up: species or system human; conditions: 10 μM l-THBr
T1 construct: Caliper Lifescience
Experimental: (§1) To determine the possible targets of l-THBr action, the binding affinities of l-THBr to neurotransmitter receptors known to be involved in sedation, hypnosis and anxiety were investigated. Radio-ligand binding assays were performed by Caliper Lifescience (Hopkinton, MA, USA). The screening was carried out at a concentration of 10 μM l–THBr to test its ability to inhibit the binding of radioligands to their corresponding receptors. The results were expressed as percentage of inhibition of labeled ligand binding to individual receptors. Significant binding activity was defined as ≥50%.

[2] = test system: T2, GABA A, BDZ, Alpha 1 site; test: Radio-ligand binding assay, GABA A BDZ alpha 1 site; conditions: 10 μM l-THBr; radioligand [3H]Flunitrazepam
T2 construct: Caliper Lifescience
Experimental: as §1

[3] = test system: Glutamate, AMPA Site (Ionotropic); test: Radio-ligand binding assay, Glutamate AMPA site; conditions: 10 μM l-THBr; radioligand [3H]AMPA
Experimental: as §1

[4] = test system: Glutamate, Kainate Site (Ionotropic); test: Radio-ligand binding assay, Glutamate Kainate site; conditions: 10 μM l-THBr; radioligand [3H]Kainic acid
Experimental: as §1

[5] = test system: Glutamate, MK-801 (Ionotropic); test: Radio-ligand binding assay, Glutamate MK-801; conditions: 10 μM l-THBr; radioligand [3H] MK-801
Experimental: as §1

[6] = test system: T3, Serotonin, 5HT1A (h); test: Radio-ligand binding assay, Serotonin 5HT1A; set-up: species or system human; conditions: 10 μM l-THBr
T3 construct: Caliper Lifescience
Experimental: as §1

[7] = test system: T4, Serotonin, 5HT1D; test: Radio-ligand binding assay, Serotonin 5HT1D; conditions: 10 μM l-THBr; radioligand [3H]5-CT
T4 construct: Caliper Lifescience
Experimental: as §1

[8] = test system: T5, Serotonin, 5HT2C; test: Radio-ligand binding assay, Serotonin 5HT2C; conditions: 10 μM l-THBr; radioligand [3H]Mesulergine
T5 construct: Caliper Lifescience
Experimental: as §1

[9] = test system: T6, Serotonin, 5HT7 (h); test: Radio-ligand binding assay, Serotonin 5HT7; set-up: species or system human; conditions: 10 μM l-THBr
T6 construct: Caliper Lifescience
Experimental: as §1

[10] = target: D1 receptor (Homo sapiens, UniProt P21728); test: cAMP assay for D1 receptor activity in CHO cells; type: cell-based
Sequence of D1 receptor (P21728 whole entry): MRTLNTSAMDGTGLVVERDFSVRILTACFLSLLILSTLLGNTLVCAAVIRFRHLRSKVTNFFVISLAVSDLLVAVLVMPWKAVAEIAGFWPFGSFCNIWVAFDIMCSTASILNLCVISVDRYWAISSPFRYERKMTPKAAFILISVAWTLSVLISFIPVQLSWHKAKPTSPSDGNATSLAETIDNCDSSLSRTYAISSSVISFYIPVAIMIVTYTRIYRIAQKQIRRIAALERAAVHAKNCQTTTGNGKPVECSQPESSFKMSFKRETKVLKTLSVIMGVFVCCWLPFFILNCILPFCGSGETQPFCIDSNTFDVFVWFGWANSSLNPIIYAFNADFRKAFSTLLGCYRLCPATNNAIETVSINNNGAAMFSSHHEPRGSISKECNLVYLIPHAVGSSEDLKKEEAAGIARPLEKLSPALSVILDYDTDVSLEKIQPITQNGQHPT
Description: Dopamine receptors can be categorized into two classes: Gαs protein coupled receptors (D1 and D5), or Gαi protein coupled receptors (D2, D3, and D4). Activation of D1 receptors can excite adenylate cyclase activity and increase cyclic adenosine monophosphate (cAMP). cAMP assays were used to determine the agonist or antagonist properties of l-THBr at the dopamine D1 receptor.
CHO K1 cells stably expressing D1 receptors were purchased from Genscript (Catalogue Number: M00247, Gene Number NM_000794). The cells were seeded in Ham’s F12 containing 10% fetal bovine serum and 200 μg/ml zeocin. On the day of the assay, 5 μl of cell suspension (3000 cells) was seeded on a 384-well plate. The assay was performed according to the manufacturer’s instructions. To test for agonist effects at the D1 receptor, the compounds (a known D1 agonist […] or l-THBr) were added from stocks two-fold more concentrated than the final concentration. […] After incubation (30 min at room temperature), 10 μL of HTRF reagents (cAMP-XL665 and anti-cAMP cryptate) were added. The signal was quantified after one hour of incubation at room temperature. The fluorescence intensity ratio (A665nm/A620nm x10^4) was calculated.

[11] = test system: male CD-1 ICR mice; test: Light-dark box test; type: in vivo; conditions: l-THBr 1 or 5 mg/kg i.p., 30 min before test, P < 0.05 vs vehicle
Description: The light-dark box test is a sensitive model to detect activity in disorders related to anxiety, based on the innate aversion of rodents to brightly lit areas and on their spontaneous exploratory behavior in response to a novel environment. The light-dark transition box is a polypropylene animal cage (44 cm × 21 cm × 21 cm), which is divided into two compartments, a light box (illuminated by a 60 W light source with 1000 lx light intensity) and a dark box. Forty-eight male CD-1 ICR mice were placed in the light box 30 min after l–THBr or DZP injection and allowed to move freely to both boxes for 5 min. The number of transitions between the two boxes were recorded by a video camera.

[12] = test system: male CD-1 ICR mice; test: Elevated plus-maze test; type: in vivo
Description: The elevated plus-maze test is widely used for the screening and evaluation of anxiolytic drugs. The apparatus consists of two open arms (30 cm × 5 cm) and two enclosed arms (30 cm × 5 cm × 15 cm), which is elevated 45 cm above the ground. The entire maze was made of clear Plexiglas and illuminated by four 30 W white lights with 300 lx light intensity arranged as a cross 100 cm above the maze. 48 male CD-1 ICR mice were randomly divided into either the vehicle group, one of three doses of l–THBr groups, or the diazepam group. 30 min after injection, mice were gently placed on the center platform facing an open arm, and the number of entries and the time spent in both arms were recorded by a video camera for 5 min. The results were expressed as the percentage of entries into the open arms (%) = (the number of entries into the open arms / the total number of entries into the four arms) × 100%; and the percentage of time spent in the open arms (%) = (time spent in the open arms / total time spent in the four arms) × 100%.
In a separate experiment, WAY100635 (a 5-HT1A antagonist) was used to test whether the anxiolytic-like activity of l-THBr is mediated by the activation of the 5-HT1A receptor. Forty male CD-1 ICR mice were randomly divided into one of four groups: vehicle, WAY100635 (3 mg/kg, i.p.), l–THBr (5 mg/kg, i.p.) or WAY100635 (3 mg/kg, i.p.) + l–THBr (5 mg/kg, i.p.). Mice were administered vehicle or WAY100635 followed by vehicle or l–THBr (5 mg/kg) injections 15 min later. The test was performed 30 min after the administration of l-THBr or vehicle.

[13] = l-THBr 1 or 5 mg/kg, i.p., P < 0.05 vs control

Q: With `COc1ccc2c(c1O)CN1CCc3cc4c(cc3[C@@H]1C2)OCO4` [l-THBr, levo-tetrahydroberberrubine] as the compound, how does the Activity [1] read?
A: Its Activity is “Yes (Significant binding affinity of l-THBr was defined as greater than 50% inhibition of ligand binding)”.

Q: What about the Average inhibition percentage ([1]; radioligand [3H]-Raclopride) of the same compound?
A: The Average inhibition percentage was 98.41% and 96.43%.

Q: And the Average inhibition percentage [2]?
A: Its Average inhibition percentage is -3.30%.

Q: And the Average inhibition percentage [3]?
A: Its Average inhibition percentage is 0.31%.

Q: And the Average inhibition percentage [4]?
A: The Average inhibition percentage was -0.89%.

Q: And the Average inhibition percentage [5]?
A: Its Average inhibition percentage is 6.41%.

Q: And the Activity [6]?
A: The Activity was “Yes (Significant binding affinity of l-THBr was defined as greater than 50% inhibition of ligand binding)”.

Q: And the Average inhibition percentage ([6]; radioligand [3H]-8-OH-DPAT)?
A: Its Average inhibition percentage is 78.31%.

Q: What about the Average inhibition percentage [7] of the same compound?
A: Its Average inhibition percentage is 42.28%.

Q: What about the Average inhibition percentage [8] of the same compound?
A: The Average inhibition percentage was 30.65%.

Q: What about the Activity [9] of the same compound?
A: The Activity was “Yes (Significant binding affinity of l-THBr was defined as greater than 50% inhibition of ligand binding)”.

Q: What about the Average inhibition percentage ([9]; radioligand [3H]LSD) of the same compound?
A: The Average inhibition percentage was 54.82%.

Q: And the IC50 [10]?
A: The IC50 was 361 nM.

Q: What about the “dose-dependent increase in cAMP production (agonist effect)” value ([10]; CHO cells stably expressing the D1 receptor, agonist test) of the same compound?
A: Its value is “but not l-THBr induced a dose-dependent increase”.

Q: And the inhibition at 10 µM ([10]; CHO, read-out: maximum inhibition of cAMP production)?
A: Its inhibition at 10 µM is 98.8%.

Q: And the “number of transitions between the light/dark sides” value [11]?
A: Its value is “increased”.

Q: And the “anxiolytic-like effects (open arm entries and time) on co-administration of 5-HT1A antagonist WAY100635” value ([12]; l-THBr 5 mg/kg i.p. + WAY100635 3 mg/kg i.p. given 15 min earlier)?
A: Its value is “significantly reversed”.

Q: And the “ratio of entries into the open arms” value [12, 13]?
A: The value was “increased”.

Q: And the “ratio of time spent in the open arms” value [12, 13]?
A: Its value is “increased”.
